The CheMixHub viscosity set

Assay: xn = mol fraction of the nth substance listed
Conditions: 101.33 kPa

CCCCCCCCCCCC(=O)OCC + CCCCO
Conditions	viscosity [mPa·s]
293.15 K, x1 = 0.1001	2.703
293.15 K, x1 = 0.2001	2.643
293.15 K, x1 = 0.3002	2.654
293.15 K, x1 = 0.4	2.718
293.15 K, x1 = 0.5001	2.8
293.15 K, x1 = 0.6002	2.891
293.15 K, x1 = 0.6997	3.008
293.15 K, x1 = 0.8	3.111
293.15 K, x1 = 0.9001	3.225
293.15 K, x2 = 0.1019	3.227
293.15 K, x2 = 0.2001	3.082
293.15 K, x2 = 0.3	2.969
293.15 K, x2 = 0.4001	2.866
293.15 K, x2 = 0.5	2.781
293.15 K, x2 = 0.6	2.699
293.15 K, x2 = 0.7	2.641
293.15 K, x2 = 0.8	2.624
293.15 K, x2 = 0.8999	2.688
298.15 K, x2 = 0.1019	2.872
298.15 K, x2 = 0.2001	2.757
298.15 K, x2 = 0.3	2.645
298.15 K, x2 = 0.4001	2.566
298.15 K, x2 = 0.5	2.477
298.15 K, x2 = 0.6	2.409
298.15 K, x2 = 0.7	2.363
298.15 K, x2 = 0.8	2.342
298.15 K, x2 = 0.8999	2.395
303.15 K, x1 = 0.0997	2.129
303.15 K, x1 = 0.2001	2.093
303.15 K, x1 = 0.2998	2.118
303.15 K, x1 = 0.3532	2.142
303.15 K, x1 = 0.4999	2.233
303.15 K, x1 = 0.5982	2.313
303.15 K, x1 = 0.6997	2.386
303.15 K, x1 = 0.7986	2.474
303.15 K, x1 = 0.9006	2.582
303.15 K, x2 = 0.1019	2.575
303.15 K, x2 = 0.2001	2.468
303.15 K, x2 = 0.3	2.391
303.15 K, x2 = 0.4001	2.309
303.15 K, x2 = 0.5	2.241
303.15 K, x2 = 0.6	2.164
303.15 K, x2 = 0.7	2.122
303.15 K, x2 = 0.8	2.092
303.15 K, x2 = 0.8999	2.131
308.15 K, x2 = 0.1019	2.311
308.15 K, x2 = 0.2001	2.225
308.15 K, x2 = 0.3	2.147
308.15 K, x2 = 0.4001	2.084
308.15 K, x2 = 0.5	2.015
308.15 K, x2 = 0.6	1.943
308.15 K, x2 = 0.7	1.9
308.15 K, x2 = 0.8	1.868
308.15 K, x2 = 0.8999	1.896
313.15 K, x1 = 0.1	1.744
313.15 K, x1 = 0.1724	1.724
313.15 K, x1 = 0.2999	1.72
313.15 K, x1 = 0.4004	1.742
313.15 K, x1 = 0.4998	1.781
313.15 K, x1 = 0.5998	1.818
313.15 K, x1 = 0.7011	1.862
313.15 K, x1 = 0.7997	1.927
313.15 K, x1 = 0.8926	1.979
313.15 K, x2 = 0.1019	2.112
313.15 K, x2 = 0.2001	2.018
313.15 K, x2 = 0.3	1.946
313.15 K, x2 = 0.4001	1.881
313.15 K, x2 = 0.5	1.816
313.15 K, x2 = 0.6	1.754
313.15 K, x2 = 0.7	1.709
313.15 K, x2 = 0.8	1.685
313.15 K, x2 = 0.8999	1.695
318.15 K, x2 = 0.1019	1.934
318.15 K, x2 = 0.2001	1.855
318.15 K, x2 = 0.3	1.787
318.15 K, x2 = 0.4001	1.725
318.15 K, x2 = 0.5	1.66
318.15 K, x2 = 0.6	1.605
318.15 K, x2 = 0.7	1.563
318.15 K, x2 = 0.8	1.529
318.15 K, x2 = 0.8999	1.534
323.15 K, x2 = 0.1019	1.745
323.15 K, x2 = 0.2001	1.674
323.15 K, x2 = 0.3	1.615
323.15 K, x2 = 0.4001	1.563
323.15 K, x2 = 0.5	1.508
323.15 K, x2 = 0.6	1.447
323.15 K, x2 = 0.7	1.399
323.15 K, x2 = 0.8	1.374
323.15 K, x2 = 0.8999	1.364
